Results from patent publication US20220162167A1, “SUBSTITUTED BICYCLIC AND TETRACYCLIC QUINONES AND USE THEREOF AS ANTI-CANCER AGENTS” (THE REGENTS OF THE UNIVERSITY OF MICHIGAN, priority 2019, published 2022).

Experiments:
Assay type in all cases: cell-based
MALME-3M = test: NCI60 growth inhibition, MALME-3M; details: Melanoma
Protocol: (§1) Representative compounds were tested in 60 cell lines (NCI60) at the National Cancer Institute, Developmental Therapeutics Program.
(§2) Representative compounds were tested in a panel of 60 cancer cells (NCI 60) at the National Cancer Institute. Growth inhibition are shown in table 2, table 3, table 4, table 5, and FIG. 1, FIG. 2, FIG. 3, FIG. 4, FIG. 5.

M14 = test: NCI60 growth inhibition, M14; details: Melanoma
Protocol: as §1, §2

MDA-MB-435 = test: NCI60 growth inhibition, MDA-MB-435; details: Melanoma
Protocol: as §1, §2

SK-MEL-2 = test: NCI60 growth inhibition, SK-MEL-2; details: Melanoma; note: test concentration or dose not given here
Protocol: as §1, §2

SK-MEL-28 = test: NCI60 growth inhibition, SK-MEL-28; details: Melanoma
Protocol: as §1, §2

SK-MEL-5 = test: NCI60 growth inhibition, SK-MEL-5; details: Melanoma
Protocol: as §1, §2

UACC-257 = test: NCI60 growth inhibition, UACC-257; details: Melanoma; note: test concentration or dose not given here
Protocol: as §1, §2

UACC-62 = test: NCI60 growth inhibition, UACC-62; details: Melanoma; note: test concentration or dose not given here
Protocol: as §1, §2

IGROV1 = test: NCI60 growth inhibition, IGROV1; details: Ovarian Cancer
Protocol: as §1, §2

OVCAR-3 = test: NCI60 growth inhibition, OVCAR-3; details: Ovarian Cancer
Protocol: as §1, §2

OVCAR-4 = test: NCI60 growth inhibition, OVCAR-4; details: Ovarian Cancer; note: test concentration or dose not given here
Protocol: as §1, §2

OVCAR-5 = test: NCI60 growth inhibition, OVCAR-5; details: Ovarian Cancer
Protocol: as §1, §2

NCI/ADR-RES = test: NCI60 growth inhibition, NCI/ADR-RES; details: Ovarian Cancer
Protocol: as §1, §2

SK-OV-3 = test: NCI60 growth inhibition, SK-OV-3; details: Ovarian Cancer
Protocol: as §1, §2

786-0 = test: NCI60 growth inhibition, 786-0; details: Renal Cancer
Protocol: as §1, §2

A498 = test: NCI60 growth inhibition, A498; details: Renal Cancer; note: test concentration or dose not given here
Protocol: as §1, §2

ACHN = test: NCI60 growth inhibition, ACHN; details: Renal Cancer
Protocol: as §1, §2

CAKI-1 = test: NCI60 growth inhibition, CAKI-1; details: Renal Cancer; note: test concentration or dose not given here
Protocol: as §1, §2

SN12C = test: NCI60 growth inhibition, SN12C; details: Renal Cancer
Protocol: as §1, §2

TK-10 = test: NCI60 growth inhibition, TK-10; details: Renal Cancer
Protocol: as §1, §2

UO-31 = test: NCI60 growth inhibition, UO-31; details: Renal Cancer
Protocol: as §1, §2

PC-3 = test: NCI60 growth inhibition, PC-3; details: Prostate Cancer
Protocol: as §1, §2

DU-145 = test: NCI60 growth inhibition, DU-145; details: Prostate Cancer
Protocol: as §1, §2

MCF7 = test: NCI60 growth inhibition, MCF7; details: Breast Cancer
Protocol: as §1, §2

MDA-MB-231/ATCC = test: NCI60 growth inhibition, MDA-MB-231/ATCC; details: Breast Cancer
Protocol: as §1, §2

HS 578T = test: NCI60 growth inhibition, HS 578T; details: Breast Cancer
Protocol: as §1, §2

BT-549 = test: NCI60 growth inhibition, BT-549; details: Breast Cancer
Protocol: as §1, §2

T-47D = test: NCI60 growth inhibition, T-47D; details: Breast Cancer
Protocol: as §1, §2

MDA-MB-468 = test: NCI60 growth inhibition, MDA-MB-468; details: Breast Cancer; note: test concentration or dose not given here
Protocol: as §1, §2

O=C1c2cccnc2C(=O)c2nc3cc(N4CCN(C5CC5)CC4)ccc3nc21 [Compound 49, 9-(4-cyclopropylpiperazin-1-yl)pyrido[2,3-b]phenazine-5,12-dione]
Growth inhibition (% control) GIPRCNT (MALME-3M): −100 % control | Growth inhibition (% control) GIPRCNT (M14): −91.1652 % control | Growth inhibition (% control) GIPRCNT (MDA-MB-435): −87.4148 % control | Growth inhibition (% control) GIPRCNT (SK-MEL-2): −16.262 % control | Growth inhibition (% control) GIPRCNT (SK-MEL-28): −76.8851 % control | Growth inhibition (% control) GIPRCNT (SK-MEL-5): −98.1218 % control | Growth inhibition (% control) GIPRCNT (UACC-257): −84.4508 % control | Growth inhibition (% control) GIPRCNT (UACC-62): −98.5184 % control | Growth inhibition (% control) GIPRCNT (IGROV1): −13.7639 % control | Growth inhibition (% control) GIPRCNT (OVCAR-3): −1.5625 % control | Growth inhibition (% control) GIPRCNT (OVCAR-4): −87.768 % control | Growth inhibition (% control) GIPRCNT (OVCAR-5): −82.2933 % control | Growth inhibition (% control) GIPRCNT (NCI/ADR-RES): 20.15 % control | Growth inhibition (% control) GIPRCNT (SK-OV-3): −78.6244 % control | Growth inhibition (% control) GIPRCNT (786-0): 28.12 % control | Growth inhibition (% control) GIPRCNT (A498): −88.1317 % control | Growth inhibition (% control) GIPRCNT (ACHN): −35.0589 % control | Growth inhibition (% control) GIPRCNT (CAKI-1): −5.268 % control | Growth inhibition (% control) GIPRCNT (SN12C): −94.7287 % control | Growth inhibition (% control) GIPRCNT (TK-10): 0.1224 % control | Growth inhibition (% control) GIPRCNT (UO-31): −99.9594 % control | Growth inhibition (% control) GIPRCNT (PC-3): 11.58 % control | Growth inhibition (% control) GIPRCNT (DU-145): −75.9298 % control | Growth inhibition (% control) GIPRCNT (MCF7): −56.1231 % control | Growth inhibition (% control) GIPRCNT (MDA-MB-231/ATCC): 15.11 % control | Growth inhibition (% control) GIPRCNT (HS 578T): −36.5499 % control | Growth inhibition (% control) GIPRCNT (BT-549): −93.6913 % control | Growth inhibition (% control) GIPRCNT (T-47D): 22.46 % control | Growth inhibition (% control) GIPRCNT (MDA-MB-468): −21.9933 % control
